Results from article PMC8198190, “The PFKFB3 Inhibitor AZ67 Inhibits Angiogenesis Independently of Glycolysis Inhibition” (International Journal of Molecular Sciences, 2021).

Target: T1, PFKFB3 (6-phosphofructo-2-kinase/fructose-2,6-bisphosphatase-3) (Homo sapiens, UniProt Q16875)
T1 construct: recombinant human PFKFB3 produced in E. coli
Experiment: isothermal titration calorimetry (MicroCal Peaq-ITC, […] °C, triplicate)
Assay type: binding

T1 sequence (Q16875 whole entry): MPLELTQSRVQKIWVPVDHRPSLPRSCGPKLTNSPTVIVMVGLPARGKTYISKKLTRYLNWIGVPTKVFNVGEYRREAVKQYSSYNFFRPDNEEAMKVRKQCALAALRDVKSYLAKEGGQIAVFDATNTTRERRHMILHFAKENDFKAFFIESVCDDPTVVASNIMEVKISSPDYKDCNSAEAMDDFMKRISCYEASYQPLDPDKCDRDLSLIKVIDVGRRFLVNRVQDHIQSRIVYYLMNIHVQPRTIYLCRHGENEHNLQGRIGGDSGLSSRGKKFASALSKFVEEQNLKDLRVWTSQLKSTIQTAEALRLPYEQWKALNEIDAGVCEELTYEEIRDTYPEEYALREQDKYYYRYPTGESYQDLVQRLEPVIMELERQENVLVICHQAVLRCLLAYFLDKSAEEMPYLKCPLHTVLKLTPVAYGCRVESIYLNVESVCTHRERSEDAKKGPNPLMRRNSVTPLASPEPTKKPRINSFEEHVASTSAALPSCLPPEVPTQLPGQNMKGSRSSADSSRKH

Q: `Cc1noc(C)c1Cn1cc(C#N)c2cc(Oc3ccc(NC(=O)[C@@H]4CCCN4)cc3)ccc21` [AZ67] was tested. Which Kd did it give?
A: Its Kd is 168 nM.
